# Reference: publication PMC9863965 (Molecules, 2023)
# Experiments:
# [1] = system: tumor microtubule proteins of cancer cells; parameters: method as in doi:10.1016/j.molstruc.2022.132636, PMID 22721782; conditions: cited from earlier work
# colon cancer (Caco2) = test: MTT cytotoxicity assay, colon cancer (Caco2); assay type: cell-based
# From the text: (§1) The cell lines laboratory at Vacsera, Dokkey, Giza, Egypt provided colon cancer (Caco2), cervical cancer (HeLa), prostate cancer (PC3), breast cancer (MCF7), hepatocellular carcinoma (HepG2) and normal human fetal lung fibroblast (WI38). The sterility of the process was maintained using a laminar airflow cabinet. The Roswell Park Memorial Institute medium (RPMI 1640) was used to sustain the cell culture. […] The 10% heat-inactivated fetal bovine serum was used to supplement the medium. The 3-(4,5-dimethylthiazol-2-yl)-2,5-diphenyl-2H-tetrazolium bromide (MTT) assay was employed to measure cytotoxicity. A purple formazan was created from the yellow MTT via a mitochondrial reduction. For inoculation, a 96-well microplate was filled with 1 × 10^5 cells per well in 100 μL of Roswell Park Memorial Institute medium (RPMI 1640). Conditions of 5% CO2, 37 °C and 95% humidity were used to incubate the microplate for 24 h to produce a completely formed monolayer sheet. After the cells formed a confluent layer, the growth media was decanted from 96-well microplates. […] Confluent cell monolayers were injected with 0.1 mL of the extract at each concentration using a multichannel pipette, and then they were dispersed throughout the 96 wells. The cells that were treated with the extracts were incubated at 37 °C and 5% CO2 for 24 h. […] The optical density at 560 nm was determined using a microplate reader. […]
# cervical cancer (HeLa) = test: MTT cytotoxicity assay, cervical cancer (HeLa); assay type: cell-based
# From the text: as §1
# prostate cancer (PC3) = test: MTT cytotoxicity assay, prostate cancer (PC3); assay type: cell-based
# From the text: as §1
# breast cancer (MCF7) = test: MTT cytotoxicity assay, breast cancer (MCF7); assay type: cell-based
# From the text: as §1
# [2] = system: hepatocellular carcinoma (HepG2); test: MTT cytotoxicity assay, hepatocellular carcinoma (HepG2); assay type: cell-based
# From the text: as §1
# [3] = system: normal human fetal lung fibroblast (WI38); test: MTT cytotoxicity assay, normal fibroblast (WI38); assay type: cell-based; conditions: WI-38, mean ± standard deviation
# From the text: as §1
Compound,antitumor effect on assembly of tumor microtubule proteins [1],"IC50 (colon cancer (Caco2); Homo sapiens, Caco-2, MTT assay, colon cancer (Caco2), mean ± standard deviation) [µg/mL]",SI: selectivity index (colon cancer (Caco2); IC50 of non-cancer cell line (WI38) / IC50 of Caco2),"IC50 (cervical cancer (HeLa); Homo sapiens, MTT assay, cervical cancer (HeLa), mean ± standard deviation) [µg/mL]",SI: selectivity index (cervical cancer (HeLa); IC50 of non-cancer cell line (WI38) / IC50 of HeLa),SI: selectivity index (prostate cancer (PC3); IC50 of non-cancer cell line (WI38) / IC50 of PC3),"IC50 (prostate cancer (PC3); MTT assay, prostate cancer (PC3), mean ± standard deviation) [µg/mL]","IC50 (breast cancer (MCF7); Homo sapiens, MTT assay, breast cancer (MCF7), mean ± standard deviation) [µg/mL]",SI: selectivity index (breast cancer (MCF7); IC50 of non-cancer cell line (WI38) / IC50 of MCF7),"IC50 ([2]; Homo sapiens, MTT assay, hepatocellular carcinoma (HepG2), mean ± standard deviation) [µg/mL]",SI: selectivity index ([2]; IC50 of non-cancer cell line (WI38) / IC50 of HepG2),IC50 [3] [µg/mL]
Calystegine B,preventing the assembly of tumor microtubule proteins,–,–,–,–,–,–,–,–,–,–,–
"COc1cccc2c1C(=O)c1c(O)c3c(c(O)c1C2=O)C[C@@](O)(C(=O)CO)C[C@@H]3O[C@H]1C[C@H](N)[C@H](O)[C@H](C)O1 [Doxorubicin, doxorubicin]",–,70.1 ± 1,0.7,40 ± 2,1.2,1.3,38 ± 2,36 ± 6,1.4,44 ± 3,1.1,51 ± 4
